Measured values published in patent US12291651B2, “Liquid crystal-infused slippery anti-fouling surfaces” (priority 2021, dated 2025).

Legend:
[1] = air-water interface; cited from earlier work
[2] = Contact angle and base diameter of surfactant droplets on LC-infused SLIPS; format: physicochemical; settings: 50 μL droplets: 100 mM DBTAB aqueous; 100 μM SDS in PBS
[3] = test system: S. aureus QS; test: Sliding time of droplets of S. aureus WT culture grown with QS inhibitor on LC-infused SLIPS; format: cell-based; settings: WT S. aureus cultured 24 hours with 1 μM inhibitor; QS mutant ~7 s, WT ~27 s
Procedure: Characterization of Droplet Sliding Times. Characterization of the sliding times of droplets placed on the surfaces of LC-infused SLIPS was performed in the following general manner. LC-infused SLIPS were placed on a custom-made stage, and the stage was attached to the moving arm of a digital protractor using binding clips. The digital protractor was set at a specified sample angle, and a pre-determined volume of aqueous solution was placed as a droplet on the surface of the liquid-infused surface. Sliding droplets were recorded on digital video, and the time required for droplets to slide 4.0 cm along the surface was measured using a digital timer. […] For each surfactant solution, the sliding times of at least 3-5 droplets were measured and used to calculate an average sliding time with standard deviation. […]
Additional experiments were performed to determine whether LC-infused SLIPS could detect the presence of PSMs in live cultures of S. aureus and, thereby, provide methods to monitor QS in communities of this pathogen in ways analogous to the studies of P. aeruginosa above. For these experiments, a S. aureus WT strain and a QS mutant strain (lacking AgrBD, proteins critical for QS) were cultured for 24 hours and the sliding times of droplets of these cultures on LC-infused SLIPS were measured. […]

[4] = test system: S. aureus QS; settings: cited from earlier work

## CCCCCCCCCCCC[N+](C)(C)C.[Br-] [DTAB, dodecyl-trimethylammonium bromide]
[1]
  limiting surface area: 55-63 Å^2

## CCCCCCCCCCCCOS(=O)(=O)[O-].[Na+] [SDS, Sodium dodecyl sulfate]
[2]
  droplet base diameter on LC-infused SLIPS: 4.14±0.02 mm

## AIP-III D4A
[3]
  sliding time of culture droplets: ~7 s
[4]
  concentration that fully inhibits S. aureus QS: ≥ 1 nM
